The test system of assay [1] is NFAT signaling pathway in Jurkat NFAT reporter cells. The assay is described as follows: Jurkat NFAT reporter assay. In kind it is cell-based. As to conditions: Homo sapiens, 30 min with compound, then soluble anti-human CD3/CD28 antibody for 6 hours, luciferase readout, read-out: EC50 (Group). An outline of the steps:
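Results are expressed as fold change relative to stimulated, inhibitor-free cells. Stimulation was 6 h with soluble anti-human CD3/CD28 antibody after a 30-min exposure of 1×10^5 NFAT-RE luciferase Jurkat reporter cells per well to the Cbl-b inhibitor; signal read by Bio-Glo bioluminescence.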
A general note: A reporter such as luciferase makes a cellular process visible.

Assay [2] concerns the target T1, human recombinant CBL-b (human Biotin CBL-b recombinant protein a.a. 39-426) (Homo sapiens, UniProt Q13191).
T1 construct: human Biotin CBL-b recombinant protein a.a; 39-426; Biotin (biotinylated); made in house
The assay is described as follows: Biochemical assay for CBL-b inhibition (ligand displacement TR-FRET). The format is binding. Conditions: 50 nM CBL-b, 0.3 μM Bodipy FL-Probe, read-out: IC50 (CBL-b inhibition, group). In a few lines: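 Ligand-displacement TR-FRET: 0.3 μM Bodipy FL probe competes with compound for 50 nM biotin-CBL-b (aa 39-426) after a 60 min RT compound pre-incubation; terbium-streptavidin detection, 60 min each step. Dose-response sigmoidal fitting gave IC50 and % maximum inhibition.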

The source of these data is patent US20260226073A1 (AURIGENE ONCOLOGY LIMITED, priority 2023, published 2026).

The structures appear in SMILES notation. Some results are limits rather than exact numbers.

T1 sequence (Q13191 39-426): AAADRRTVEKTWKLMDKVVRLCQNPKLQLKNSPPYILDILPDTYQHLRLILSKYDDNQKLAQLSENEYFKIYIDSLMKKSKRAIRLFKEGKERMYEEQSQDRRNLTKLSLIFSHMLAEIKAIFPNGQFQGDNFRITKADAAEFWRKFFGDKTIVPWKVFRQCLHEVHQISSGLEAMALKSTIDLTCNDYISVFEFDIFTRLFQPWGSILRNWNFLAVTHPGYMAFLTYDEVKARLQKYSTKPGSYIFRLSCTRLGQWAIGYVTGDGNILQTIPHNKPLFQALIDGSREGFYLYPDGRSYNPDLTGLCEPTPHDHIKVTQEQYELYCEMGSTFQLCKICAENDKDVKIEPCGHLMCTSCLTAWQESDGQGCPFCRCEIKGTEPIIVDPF

In the case of `CC(NC1CCCC1)c1cc(Cl)nc(N2Cc3ccc(-c4ccc(Cl)cc4-c4nncn4C)cc3C2=O)c1` (single isomer, unassigned) [Compound 104, 6-(4-Chloro-2-(4-methyl-4H-1,2,4-triazol-3-yl)phenyl)-2-(6-chloro-4-(1-(cyclo-pentylamino)ethyl)pyridin-2-yl)isoindolin-1-one], the EC50 (usually the concentration giving half of the maximal effect) in assay [1] is < 300 nM. Also, the IC50 (usually the concentration needed to halve the response being measured) in assay [2] was < 80 nM.

As to `Cn1cnnc1CC1(c2ccc3c(c2)C(=O)N(c2cc(CNCC4CC4(F)F)cc(Cl)n2)C3)COC1` (centres unmarked) [Compound 175, 2-(6-Chloro-4-((((2,2-difluorocyclopropyl)methyl)amino)methyl)pyridin-2-yl)-6-(3-((4-methyl-4H-1,2,4-triazol-3-yl)methyl)oxetan-3-yl)isoindolin-1-one], in assay [1], the EC50 was in the range of 300 to 1000 nM. In assay [2], the IC50 is < 80 nM.

Take `Cc1cc(CNCC2CC2)cc(N2Cc3ccc(C4(Cc5nncn5C)COC4)cc3C2=O)n1` [Compound 147, 2-(4-(((Cyclopropylmethyl)amino)methyl)-6-methylpyridin-2-yl)-6-(3-((4-methyl-4H-1,2,4-triazol-3-yl)methyl)oxetan-3-yl)isoindolin-1-one]: the EC50 in assay [1] was 300 to 1000 nM. Also, the concentration for half-maximal inhibition (IC50) in assay [2] is < 80 nM.

Regarding `Cc1cc(CN[C@@H](CO)C(C)C)cc(N2Cc3ccc(-c4ccc(F)cc4-c4nncn4C)cc3C2=O)n1` [Compound 315, (R)-6-(4-Fluoro-2-(4-methyl-4H-1,2,4-triazol-3-yl)phenyl)-2-(4-(((1-hydroxy-3-methylbutan-2-yl)amino)methyl)-6-methylpyridin-2-yl)isoindolin-1-one], the EC50 in assay [1] was < 300 nM. The IC50 in assay [2] is < 80 nM.

For the compound `Cc1cc(CNCC2CCC2)cc(N2Cc3ccc(-c4ccc(Cl)cc4-c4nncn4C)cc3C2=O)n1` [Compound 274, 6-(4-Chloro-2-(4-methyl-4H-1,2,4-triazol-3-yl)phenyl)-2-(4-(((cyclobutyl-methyl)amino)methyl)-6-methylpyridin-2-yl)isoindolin-1-one], the EC50 in assay [1] was < 300 nM. The IC50 in assay [2] was < 80 nM.

On to `Cn1cnnc1CC1(c2ccc3c(c2)C(=O)N(c2cc(CN4CCCC(CO)C4)cc(C(F)(F)F)n2)C3)COC1` (centres unmarked) [Compound 37, 2-(4-((3-(Hydroxymethyl)piperidin-1-yl)methyl)-6-(trifluoromethyl)pyridin-2-yl)-6-(3-((4-methyl-4H-1,2,4-triazol-3-yl)methyl)oxetan-3-yl)isoindolin-1-one], for which the EC50 in assay [1] is 1000 to 10000 nM. For the same compound, the half-maximal inhibitory concentration (IC50) in assay [2] lay in the range of 80 to 300 nM.

For `Cn1cnnc1CC1(c2ccc3c(c2)C(=O)N(c2cc(CNCC4CC4)cc(C(F)(F)F)c2)C3)COC1` [Compound 13, 2-(3-(((Cyclopropylmethyl)amino)methyl)-5-(trifluoromethyl)phenyl)-6-(3-((4-methyl-4H-1,2,4-triazol-3-yl)methyl)oxetan-3-yl)isoindolin-1-one], the EC50 in assay [1] lay in the range of 1000 to 10000 nM. Moreover, the half-maximal inhibitory concentration (IC50) in assay [2] lay within 80 to 300 nM.

Regarding `Cn1cnnc1CC1(c2ccc3c(c2)C(=O)N(c2cc(CN4CCC5(CC5)C4)cc(Cl)n2)C3)COC1` [Compound 62, 2-(4-((5-Azaspiro[2.4]heptan-5-yl)methyl)-6-chloropyridin-2-yl)-6-(3-((4-methyl-4H-1,2,4-triazol-3-yl)methyl)oxetan-3-yl)isoindolin-1-one], in assay [1], the EC50 was 300 to 1000 nM. Besides, in assay [2], the concentration for half-maximal inhibition (IC50) was in the range of 80 to 300 nM.

With `Cn1cnnc1CC1(c2ccc3c(c2)C(=O)N(c2cc(CN4CCCC(F)C4)cc(C(F)(F)F)n2)C3)COC1` (centres unmarked) [Compound 33, 2-(4-((3-Fluoropiperidin-1-yl)methyl)-6-(trifluoromethyl)pyridin-2-yl)-6-(3-((4-methyl-4H-1,2,4-triazol-3-yl)methyl)oxetan-3-yl)isoindolin-1-one], the EC50 in assay [1] lay in the range of 1000 to 10000 nM. Also, the IC50 in assay [2] lay in the range of 300 to 5000 nM.

Take `C[C@H](Cc1nncn1C)c1ccc2c(c1)C(=O)N(c1cc(CNCC3CC3)cc(Cl)n1)C2` (single isomer, unassigned) [Compound 161]: in assay [1], the concentration giving a half-maximal response (EC50) lay in the range of 300 to 1000 nM. For the same compound, in assay [2], the IC50 is < 80 nM.
